Drawing on US12344597B2, “Alkoxy-substituted pyridinyl derivatives as LPA1 receptor antagonists and their use in the treatment of fibrosis” (IDORSIA PHARMACEUTICALS LTD, priority 2018, dated 2025), this text covers IC50 for 28 molecules.

This assay has as its target human LPA1 receptor (Homo sapiens (Human), UniProt Q92633). Nature of the assay: Beta-arrestin recruitment assay to determine IC50 values for human LPAR1. It counts as cell-based. To be noted: antagonist mode, Tango EDG2-bla U2OS cells, LPA 18:1 500 nM final. The method in brief: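 Tango EDG2-bla U2OS cells: LPA-driven beta-arrestin/TEV protease recruitment releases Gal4-VP16, inducing beta-lactamase reporter read with live-cell substrate. Cells seeded 20 h at 37 °C beforehand. IC50 is antagonist concentration inhibiting 50% of maximal response.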

human LPA1 receptor, sequence (Q92633 whole entry, the tested form may be a part): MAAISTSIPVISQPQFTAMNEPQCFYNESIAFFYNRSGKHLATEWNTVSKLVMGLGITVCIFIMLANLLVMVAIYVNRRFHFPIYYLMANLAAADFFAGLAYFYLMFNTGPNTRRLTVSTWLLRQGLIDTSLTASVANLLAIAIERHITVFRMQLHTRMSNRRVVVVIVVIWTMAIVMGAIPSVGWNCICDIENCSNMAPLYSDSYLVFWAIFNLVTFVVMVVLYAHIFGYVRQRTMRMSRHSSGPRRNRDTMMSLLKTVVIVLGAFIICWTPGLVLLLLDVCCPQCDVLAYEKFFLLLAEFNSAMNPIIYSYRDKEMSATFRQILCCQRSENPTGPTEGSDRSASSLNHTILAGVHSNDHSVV

Turning to `CC(C)c1ccccc1C1(C(=O)Nc2cccnc2OC(F)F)CN(C(=O)CC(C)(C)C(=O)O)C1` [Ex 12-84, 4-(3-((2-(difluoromethoxy)pyridin-3-yl)carbamoyl)-3-(2-isopropylphenyl)azetidin-1-yl)-2,2-dimethyl-4-oxobutanoic acid], the IC50 came out at 51 nM.
Molecule `COC(=O)C(C)(C)CC(=O)N1CC(C(=O)Nc2ccc(OC)nc2OC)(c2ccccc2C(C)C)C1` [Ex 12-85, methyl 4-(3-((2,6-dimethoxypyridin-3-yl)carbamoyl)-3-(2-isopropylphenyl)azetidin-1-yl)-2,2-dimethyl-4-oxobutanoate] came in with an IC50 of 140 nM.
`COc1ccc(NC(=O)C2(c3ccccc3C(C)C)CN(C(=O)CC(C)(C)C(=O)O)C2)c(OC)n1` [Ex 12-86, 4-(3-((2,6-dimethoxypyridin-3-yl)carbamoyl)-3-(2-isopropylphenyl)azetidin-1-yl)-2,2-dimethyl-4-oxobutanoic acid] showed an IC50 of 27 nM.
Turning to `CC(C)c1ccccc1C1(C(=O)Nc2cc(F)cnc2OC(F)F)CN(C(=O)CC(C)(C)C(=O)O)C1` [Ex 12-87, 4-(3-((2-(difluoromethoxy)-5-fluoropyridin-3-yl)carbamoyl)-3-(2-isopropylphenyl)azetidin-1-yl)-2,2-dimethyl-4-oxobutanoic acid], the IC50 was determined as 41 nM.
Under `Cc1ccc(NC(=O)C2(c3ccccc3C(C)C)CN(C(=O)[C@H](C)CC(=O)O)C2)c(OC(F)F)n1` [Ex 12-90, (R)-4-(3-((2-(difluoromethoxy)-6-methylpyridin-3-yl)carbamoyl)-3-(2-isopropylphenyl)azetidin-1-yl)-3-methyl-4-oxobutanoic acid] stands 14 nM; under `Cc1ccc(NC(=O)C2(c3ccccc3C(C)C)CN(C(=O)C(C)(C)CC(=O)O)C2)c(OC(F)F)n1` [Ex 12-91, 4-(3-((2-(difluoromethoxy)-6-methylpyridin-3-yl)carbamoyl)-3-(2-isopropylphenyl)azetidin-1-yl)-3,3-dimethyl-4-oxobutanoic acid], 5 nM.
The same measure for `C=C(CC(=O)OC)C(=O)N1CC(C(=O)Nc2ccc(C)nc2OC(F)F)(c2ccccc2C(C)C)C1` [Ex 12-92, methyl 3-(3-((2-(difluoromethoxy)-6-methylpyridin-3-yl)carbamoyl)-3-(2-isopropylphenyl)azetidine-1-carbonyl)but-3-enoate]: 110 nM.
`C=C(CC(=O)O)C(=O)N1CC(C(=O)Nc2ccc(C)nc2OC(F)F)(c2ccccc2C(C)C)C1` [Ex 12-93, 3-(3-((2-(difluoromethoxy)-6-methylpyridin-3-yl)carbamoyl)-3-(2-isopropylphenyl)azetidine-1-carbonyl)but-3-enoic acid] yielded an IC50 of 7 nM.
The same measure for `COC(=O)[C@H]1C[C@H]1C(=O)N1CC(C(=O)Nc2ccc(C)nc2OC(F)F)(c2ccccc2C(C)C)C1` [Ex 12-94, methyl (1S,2R)-2-(3-((2-(difluoromethoxy)-6-methylpyridin-3-yl)carbamoyl)-3-(2-isopropylphenyl)azetidine-1-carbonyl)cyclopropane-1-carboxylate]: 51 nM.
Under `Cc1ccc(NC(=O)C2(c3ccccc3C(C)C)CN(C(=O)[C@@H]3C[C@@H]3C(=O)O)C2)c(OC(F)F)n1` [Ex 12-95, (1S,2R)-2-(3-((2-(difluoromethoxy)-6-methylpyridin-3-yl)carbamoyl)-3-(2-isopropylphenyl)azetidine-1-carbonyl)cyclopropane-1-carboxylic acid] stands 14 nM.
With `COC(=O)[C@@H]1C[C@@H]1C(=O)N1CC(C(=O)Nc2ccc(C)nc2OC(F)F)(c2ccccc2C(C)C)C1` [Ex 12-96, methyl (1R,2S)-2-(3-((2-(difluoromethoxy)-6-methylpyridin-3-yl)carbamoyl)-3-(2-isopropylphenyl)azetidine-1-carbonyl)cyclopropane-1-carboxylate], the IC50 worked out at 34 nM.
Under `Cc1ccc(NC(=O)C2(c3ccccc3C(C)C)CN(C(=O)[C@H]3C[C@H]3C(=O)O)C2)c(OC(F)F)n1` [Ex 12-97, (1R,2S)-2-(3-((2-(difluoromethoxy)-6-methylpyridin-3-yl)carbamoyl)-3-(2-isopropylphenyl)azetidine-1-carbonyl)cyclopropane-1-carboxylic acid] stands 13 nM; under `Cc1ccc(NC(=O)C2(c3ccccc3C(C)C)CN(C(=O)CC3(C(=O)O)COC3)C2)c(OC(F)F)n1` [Ex 12-98, 3-(2-(3-((2-(difluoromethoxy)-6-methylpyridin-3-yl)carbamoyl)-3-(2-isopropylphenyl)azetidin-1-yl)-2-oxoethyl)oxetane-3-carboxylic acid], 26 nM.
Regarding `Cc1ccc(NC(=O)C2(c3ccccc3C(C)C)CN(C(=O)C3(CC(=O)O)COC3)C2)c(OC(F)F)n1` [Ex 12-99, 2-(3-(3-((2-(difluoromethoxy)-6-methylpyridin-3-yl)carbamoyl)-3-(2-isopropylphenyl)azetidine-1-carbonyl)oxetan-3-yl)acetic acid], the IC50 amounted to 16 nM.
In turn, `CCOC(=O)C[C@H](N)C(=O)N1CC(C(=O)Nc2ccc(C)nc2OC(F)F)(c2ccccc2C(C)C)C1` [Ex 12-100, ethyl (S)-3-amino-4-(3-((2-(difluoromethoxy)-6-methylpyridin-3-yl)carbamoyl)-3-(2-isopropylphenyl)azetidin-1-yl)-4-oxobutanoate] had an IC50 of 23 nM.
Molecule `Cc1ccc(NC(=O)C2(c3ccccc3C(C)C)CN(C(=O)CCC(C)(C)C(=O)O)C2)c(OC(F)F)n1` [Ex 12-103, 5-(3-((2-(difluoromethoxy)-6-methylpyridin-3-yl)carbamoyl)-3-(2-isopropylphenyl)azetidin-1-yl)-2,2-dimethyl-5-oxopentanoic acid] came in with an IC50 of 19 nM.
Take `CCOC(=O)C[C@@H](CC(=O)N1CC(C(=O)Nc2ccc(C)nc2OC(F)F)(c2ccccc2C(C)C)C1)OC(C)=O` [Ex 12-104, ethyl (R)-3-acetoxy-5-(3-((2-(difluoromethoxy)-6-methylpyridin-3-yl)carbamoyl)-3-(2-isopropylphenyl)azetidin-1-yl)-5-oxopentanoate]: the IC50 worked out at 41 nM.
`Cc1ccc(NC(=O)C2(c3ccccc3C(C)C)CN(C(=O)C[C@@H](O)CC(=O)O)C2)c(OC(F)F)n1` [Ex 12-105, (R)-5-(3-((2-(difluoromethoxy)-6-methylpyridin-3-yl)carbamoyl)-3-(2-isopropylphenyl)azetidin-1-yl)-3-hydroxy-5-oxopentanoic acid]: the IC50 worked out at 54 nM.
In the case of `Cc1ccc(NC(=O)C2(c3ccccc3C(C)C)CN(C(=O)COCCOCC(=O)OCc3ccccc3)C2)c(OC(F)F)n1` [Ex 12-106, benzyl 2-(2-(2-(3-((2-(difluoromethoxy)-6-methylpyridin-3-yl)carbamoyl)-3-(2-isopropylphenyl)azetidin-1-yl)-2-oxoethoxy)ethoxy)acetate], inhibition was half-maximal at 59 nM (IC50).
Regarding `Cc1ccc(NC(=O)C2(c3ccccc3C(C)C)CN(C(=O)COCCOCC(=O)O)C2)c(OC(F)F)n1` [Ex 12-107, 2-(2-(2-(3-((2-(difluoromethoxy)-6-methylpyridin-3-yl)carbamoyl)-3-(2-isopropylphenyl)azetidin-1-yl)-2-oxoethoxy)ethoxy)acetic acid], inhibition was half-maximal at 150 nM (IC50).
Take `Cc1ccc(NC(=O)C2(c3ccccc3C(C)C)CN(C(=O)C3C4CC3(C(=O)O)C4)C2)c(OC(F)F)n1` (stereo not shown) [Ex 12-108, 2-(3-((2-(difluoromethoxy)-6-methylpyridin-3-yl)carbamoyl)-3-(2-isopropylphenyl)azetidine-1-carbonyl)bicyclo[1.1.1]pentane-1-carboxylic acid]: the midpoint of inhibition, the IC50, lay at 28 nM.
In the case of `Cc1ccc(NC(=O)C2(c3ccccc3C(C)C)CN(C(=O)CCOCC(=O)OCc3ccccc3)C2)c(OC(F)F)n1` [Ex 12-109, benzyl 2-(3-(3-((2-(difluoromethoxy)-6-methylpyridin-3-yl)carbamoyl)-3-(2-isopropylphenyl)azetidin-1-yl)-3-oxopropoxy)acetate], half-maximal inhibition (IC50) required 20 nM.
The molecule `Cc1ccc(NC(=O)C2(c3ccccc3C(C)C)CN(C(=O)CCOCC(=O)O)C2)c(OC(F)F)n1` [Ex 12-110, 2-(3-(3-((2-(difluoromethoxy)-6-methylpyridin-3-yl)carbamoyl)-3-(2-isopropylphenyl)azetidin-1-yl)-3-oxopropoxy)acetic acid] had an IC50 of 66 nM.
In the case of `CCOC(=O)C(F)(F)CC(=O)N1CC(C(=O)Nc2ccc(C)nc2OC(F)F)(c2ccccc2C(C)C)C1` [Ex 12-111, ethyl 4-(3-((2-(difluoromethoxy)-6-methylpyridin-3-yl)carbamoyl)-3-(2-isopropylphenyl)azetidin-1-yl)-2,2-difluoro-4-oxobutanoate], half-maximal inhibition (IC50) required 18 nM.
`Cc1ccc(NC(=O)C2(c3ccccc3C(C)C)CN(C(=O)CC(F)(F)C(=O)O)C2)c(OC(F)F)n1` [Ex 12-112, 4-(3-((2-(difluoromethoxy)-6-methylpyridin-3-yl)carbamoyl)-3-(2-isopropylphenyl)azetidin-1-yl)-2,2-difluoro-4-oxobutanoic acid] yielded an IC50 of 39 nM.
As to `CCOC(=O)C1(C(=O)N2CC(C(=O)Nc3ccc(C)nc3OC(F)F)(c3ccccc3C(C)C)C2)CNC1` [Ex 12-113, ethyl 3-(3-((2-(difluoromethoxy)-6-methylpyridin-3-yl)carbamoyl)-3-(2-isopropylphenyl)azetidine-1-carbonyl)azetidine-3-carboxylate], the IC50 stood at 53 nM.
In turn, `Cc1ccc(NC(=O)C2(c3ccccc3C(C)C)CN(C(=O)C3(C(=O)O)CNC3)C2)c(OC(F)F)n1` [Ex 12-114, 3-(3-((2-(difluoromethoxy)-6-methylpyridin-3-yl)carbamoyl)-3-(2-isopropylphenyl)azetidine-1-carbonyl)azetidine-3-carboxylic acid] gave an IC50 of 2680 nM.
For the molecule `Cc1ccc(NC(=O)C2(c3ccccc3C(C)C)CN(C(=O)C(F)(F)CC(=O)O)C2)c(OC(F)F)n1` [Ex 12-115, 4-(3-((2-(difluoromethoxy)-6-methylpyridin-3-yl)carbamoyl)-3-(2-isopropylphenyl)azetidin-1-yl)-3,3-difluoro-4-oxobutanoic acid], the IC50 was determined as 7 nM.
